Laboratory results as given in patent publication EP4818168A1, “FUSED RING COMPOUND, PHARMACEUTICAL COMPOSITION THEREOF AND USE THEREOF” (priority 2023, dated 2025).
pIC50: −log10 of the molar value. Where two headings read alike, the source gives them in different places.

How the values were obtained:
AURKA = molecular target: T1, AURKA (Homo sapiens, UniProt O14965); type: cell-based
T1 construct: endogenous in cells; host or cells: Jurkat cells
T1 sequence (O14965 1-403): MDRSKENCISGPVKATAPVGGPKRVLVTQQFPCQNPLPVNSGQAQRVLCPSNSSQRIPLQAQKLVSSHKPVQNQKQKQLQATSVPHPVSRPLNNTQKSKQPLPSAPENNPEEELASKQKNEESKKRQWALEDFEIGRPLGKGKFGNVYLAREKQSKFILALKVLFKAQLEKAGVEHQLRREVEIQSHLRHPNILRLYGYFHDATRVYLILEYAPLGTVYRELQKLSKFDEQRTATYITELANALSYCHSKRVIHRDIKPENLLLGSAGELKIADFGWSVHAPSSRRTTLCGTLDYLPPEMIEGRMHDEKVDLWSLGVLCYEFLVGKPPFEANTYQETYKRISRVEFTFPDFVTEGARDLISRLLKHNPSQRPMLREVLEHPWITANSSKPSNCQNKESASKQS
Description: WB is a classical biochemical experimental method used to detect the abundance of a target protein in a sample of cells or biological tissue. It relies on specific antigen-antibody binding to detect protein signals from the sample processed by gel electrophoresis: the protein specifically binds to a primary antibody at an epitope; the primary antibody is then conjugated with a secondary antibody to amplify the signal cascade; the signal is read out by chemiluminescent or fluorescent detection. The intracellular protein content is ultimately characterized by the intensity of the optical signals. […] The DC50 value can be calculated by curve fitting of the protein WB exposure signals.
The experimental procedure is as follows: • 1. Seed Jurkat cells into a 12-well plate at 1×10^6 cells/500 µL/well. • 2. Mix the culture medium with the compound to a concentration that is twice the desired final concentration. […] Transfer the cell suspension to a centrifuge tube. Rinse the 12-well plate with PBS and then transfer the PBS from the plate to the same centrifuge tube. Centrifuge at 3000 rpm for 5 min at room temperature. Aspirate the supernatant using a vacuum pump. […] Lyse on ice for 20 min. • 4. Centrifuge the lysed sample at 13000 rpm for 20 min at 4°C. Mix the supernatant with 5× protein loading buffer. Boil at 100°C for 5 min and then cool. Store the denatured protein sample at -20°C. • 5. […] Run electrophoresis at 80 V for 20 min, and then at 120 V constant voltage for 60 min. • 6. Transfer the protein onto a nitrocellulose membrane in an ice bath at 250 mA constant current for 90 min. • 7. […] Incubate with a primary antibody overnight at 4°C. • 9. […] Incubate with a secondary antibody for 1-2 h at room temperature. • 10. […] Expose and image the membrane using a LICOR Odyssey DLx imager.

H82 cells = assay: cells; type: cell-based; details: Homo sapiens
Procedure: CellTiter-Glo (CTG) is a rapid cell viability test method based on ATP detection. […] Adenosine triphosphate (ATP) participates in various enzymatic reactions in organisms and is an indicator of living cell metabolism. Its content directly reflects the number of living cells and cell status. During the experiment, equal volume of CTG reagent is added to the cultured cells to measure the luminescence value. The chemiluminescent signal value is proportional to the amount of ATP, thus reflecting the number of viable cells. Therefore, cell viability can be obtained by detecting the ATP content. Compounds that affect cell viability will inhibit cell viability in a concentration-dependent manner, allowing a curve to be fitted to obtain the IC50 value.
The experimental procedure is as follows: • 11. Place the cell suspension in a 15 mL centrifuge tube, centrifuge at 1000 rpm for 5 min at room temperature, discard the supernatant, and collect the cell pellet. • 12. Resuspend the cell pellet with preheated complete cell culture medium (RPMI1640+10%FBS+1%PS), and use a Countess® automated cell counter to detect cell viability and density. […] Transfer the compound solution to a 96-well plate seeded with cells (final concentration of DMSO 0.1%), and place in a cell incubator at 37°C, 5% CO2 for 6 days. • 15. […] Protect from light during the whole process. Perform optical signal readings using a SpectraMax i3x reader. • 16. Data analysis: Remaining activity (%) = 100% * (1 - ((LumDMSO - Lummedium) - Lumsample) / (LumDMSO - LumPBS/medium)). Use GraphPad Prism 9.0 software to draw an S-shaped dose-survival rate curve and calculate the IC50 value using a nonlinear regression model.

[1] = 100 nM compound, Jurkat cells, 24 h, Table 2
[2] = 1 µM compound, Jurkat cells, 24 h, Table 2
[3] = NCI-H82, H82 cells, 4000 cells/well, CellTiter-Glo, read-out: IC50 in H82 Cells
[4] = NCI-H82, read-out: IC50 in H82 Cells

| Structure (SMILES) | Percentage of AURKA Degradation Induced by 100 nM Compound in Jurkat Cells (AURKA; [1]) | Percentage of AURKA Degradation Induced by 1 µM Compound in Jurkat Cells (AURKA; [2]) | pIC50 (H82 cells; [3]) | pIC50 (H82 cells; [4]) | Percentage of AURKA Degradation Induced by 100 nM Compound in Jurkat Cells (AURKA) | Percentage of AURKA Degradation Induced by 1 µM Compound in Jurkat Cells (AURKA) |
| --- | --- | --- | --- | --- | --- | --- |
| Cc1ccc2c(c1)C(c1c(F)cccc1F)=NCc1cnc(Nc3ccc(C(=O)NC4CC5(CCN(c6ccc(N7CCC(=O)NC7=O)cn6)CC5)C4)cc3)nc1-2 [Compound A118] | ++ (30% < Degradation ≤ 70%) | +++ (Degradation > 70%) | > 6.00 | – | – | – |
| O=C1CCN(c2ccc(C3CN(C4CN(C(=O)c5ccc(Nc6ncc7c(n6)-c6ccc(Cl)cc6C(c6c(F)cccc6F)=NC7)cc5)C4)C3)nc2)C(=O)N1 [Compound A120] | + (Degradation ≤ 30%) | + (Degradation ≤ 30%) | – | > 6.00 | – | – |
| O=C1CCN(c2ccc(N3CCN(Cc4cnc(-c5ccc(Nc6ncc7c(n6)-c6ccc(Cl)cc6C(c6c(F)cccc6F)=NC7)cc5)[nH]4)CC3)cc2)C(=O)N1 [Compound A121] | +++ (Degradation > 70%) | ++ (30% < Degradation ≤ 70%) | > 6.00 | – | – | – |
| COc1ccc2c(c1)C(c1c(F)cccc1F)=NCc1cnc(Nc3ccc(C(=O)NC4CC5(CCN(c6ccc(N7CCC(=O)NC7=O)cn6)CC5)C4)cc3)nc1-2 [Compound A122] | +++ (Degradation > 70%) | +++ (Degradation > 70%) | > 6.00 | – | – | – |
| O=C1CCN(c2ccc(N3CCN(CC#Cc4ccc(Nc5ncc6c(n5)-c5ccc(Cl)cc5C(c5c(F)cccc5F)=NC6)cc4)CC3)cc2)C(=O)N1 [Compound A124] | + (Degradation ≤ 30%) | + (Degradation ≤ 30%) | > 6.00 | – | – | – |
| O=C1CCN(c2cccc(N3CCN(CCOc4cccc(Nc5ncc6c(n5)-c5ccc(Cl)cc5C(c5c(F)cccc5F)=NC6)c4)CC3)c2)C(=O)N1 [Compound A125] | ++ (30% < Degradation ≤ 70%) | +++ (Degradation > 70%) | > 6.00 | – | – | – |
| O=C1CCN(c2cccc(C3CN(CC#Cc4cccc(Nc5ncc6c(n5)-c5ccc(Cl)cc5C(c5c(F)cccc5F)=NC6)c4)C3)c2)C(=O)N1 [Compound A126] | + (Degradation ≤ 30%) | + (Degradation ≤ 30%) | > 6.00 | – | – | – |
| O=C1CCN(c2cccc(N3CCC(C#Cc4cccc(Nc5ncc6c(n5)-c5ccc(Cl)cc5C(c5c(F)cccc5F)=NC6)c4)CC3)c2)C(=O)N1 [Compound A127] | – | – | – | > 6.00 | +++ (key: +: Degradation ≤ 30%; ++: 30% < Degradation ≤ 70%; +++: Degradation > 70%) | +++ (key: +: Degradation ≤ 30%; ++: 30% < Degradation ≤ 70%; +++: Degradation > 70%) |
| O=C1CCN(c2ccc(N3CCC4(CC3)CC(NC(=O)c3ccc(Nc5ncc6c(n5)-c5ccc(Cl)cc5C(c5ccccn5)=NC6)cc3)C4)nc2)C(=O)N1 [Compound A128] | +++ (Degradation > 70%) | +++ (Degradation > 70%) | > 6.00 | – | – | – |
| Cc1c(N2CCN(CCC#Cc3cccc(Nc4ncc5c(n4)-c4ccc(Cl)cc4C(c4c(F)cccc4F)=NC5)c3)CC2)cccc1N1CCC(=O)NC1=O [Compound A129] | +++ (Degradation > 70%) | +++ (Degradation > 70%) | > 6.00 | – | – | – |
